Results on eight compounds are retold here after patent US20110280940A1, “Di-Vanilloyl And Tri-Vanilloyl Derivatives For Use In Anti-Cancer Therapy” (priority 2008, published 2011).

One assay has as its system U373 glioblastoma cells. The assay can be described thus: MTT colorimetric assay, overall cell growth, U373. The format is cell-based, human. Conditions: Homo sapiens, U373 MG, 72 hours of incubation, read-out: In Vitro IC50 Growth Inhibitory Values, U373. The source says:
(§1) The amount of formazan obtained at the end of the experiment, measured by means of a spectrophotometer, is directly proportional to the number of living cells. Optical density determination thus enabled a quantitative measurement of the effect of the investigated compounds as compared to the control condition (untreated cells) and/or to other reference compounds. Eleven human cancer cell lines and one mouse melanoma cell-line (B16F10) described in Table 2 were used in the following MTT tests. These cancer cell lines cover seven histological cancer types including prostate (PC3), glioma (Hs683, T98G, U373, melanoma (VM21, VM28), non-small-cell-lung (A549), breast (MCF-7), colon (LoVo) and oesophageal (OE21, OE33) cancers. […] Each cell line was seeded in its appropriate culture medium. The detailed experimental procedure was the following: after a 24-hour period of incubation at 37° C., the culture medium was replaced by 100 μl of fresh medium in which the tested compound was previously dissolved, at the following molar concentrations: 10^-8 […] and 10^-4 M. Each experiment was performed in sestuplicates (6 times). After 72 hours of incubation at 37° C. with (experimental conditions) or without (control condition) the compound to be tested, the medium was replaced by 100 μl MTT dissolved in RPMI (1640 without phenol red) at a concentration of 0.5 or 1 mg/ml. The micro-wells were subsequently incubated during 3 hours and a half at 37° C. and centrifuged at 1300 rpm during 10 minutes. MTT was removed and formazan crystals formed were dissolved in 100 μl DMSO. The micro-wells were shaken for 5 minutes and read on a spectrophotometer at wavelengths of 570 nm (maximal formazan absorbance). For each experimental condition, the mean optical density was calculated, allowing the determination of the percentage of remaining living cells in comparison to the control. […] The origin of all the cell lines we used, along with their biological characteristics, and the validation procedures of the MTT colorimetric assay as employed here are fully detailed in Van Quaquebeke et al., 2005, J Med Chem 48:849-856; […]

The test system of assay [1] is A549 non-small-cell-lung cancer cell line. The assay can be described thus: Cellular imaging (quantitative videomicroscopy), global growth ratio, A549. Conditions: Homo sapiens, 72 h, read-out: Global Grow Ratio Treated/Ct (GGR T/Ct) determined by Video Quantitative microscopy, A549. It counts as cell-based. The text has this:
(§2) As the MTT test is based on the mitochondria functions, we also investigated the effects of the di- and tri-vanilloyl derivatives according to the invention on cell proliferation, migration and morphology by means of a cellular imaging approach (Debeir et al., Cytometry 60:29-40, 2004; Debeir et al., IEEE Trans Med Imaging 24:697-711, 2005) either in the human U373-MG glioma cell line, which is apoptosis-resistant but autophagy-sensitive (Lefranc F et al., Neurosurgery 2008) and in the human A549 non-small-cell-lung cancer cell line, which is apoptosis-resistant and autophagy-resistant (Mijatovic T et al., Neoplasia 2006, May; 8(5):402-12).
(§3) Investigations have also been performed in human normal fibroblasts (WS1 and WI38—see Tables 4 and 5). Cellular imaging relied on the use of computer-assisted phase-contrast microscopy making possible to film the behaviour of living cells in culture dishes for several days.
(§4) Cells were seeded in a 25-cm^2 flask at a low density, treated or not with the vanilloyl-esters invention (at a concentration of 50 μM) and filmed thereafter for a period of 72 h. The experiment was conducted in quadruplicates (in duplicates for DLT-95 compounds).
(§5) The behaviour of the cells, in terms of morphology, growth and death were thus investigated. The effect on the overall growth was measured by counting the number of cells on the first (0 h) and the last image (72 h) of each film. The global growth ratio (GGR) was then deduced by dividing the number of cells on the last image by the number of cells on the first image. The ratio GGRtreated cells/GGRcontrol cells, was further calculated thereby obtaining a value that describes the effect of compounds of the present invention on the overall cell growth. The methodology is fully described and validated in Debeir et al., 2008, Exp Cell Res 314:2985-2998 and Mathieu et al., 2009, J Cell Mol Med, Feb. 20, 2009.
(§6) Illustrative pictures (time=0 h and 72 h) of glioblastoma and normal fibroblast cell line left untreated or treated with poly-vanillic compounds according to the invention (50 μM) are provided in FIG. 1 (U373 glioblastoma) and FIG. 2 (normal fibroblasts). The GGR parameter analyses confirmed the marked impairment of cell growth in both cancer cell lines of the poly-vanillic compounds according to the invention (Table 5).

Assay [2] has as its system PC-3 prostate cancer cells. The assay can be described thus: MTT colorimetric assay, overall cell growth, PC-3. It counts as cell-based, human. The conditions noted are these: Homo sapiens, 72 hours of incubation, read-out: In Vitro IC50 Growth Inhibitory Values, PC-3.
Description: as §1
On the technique in general: Tetrazolium dyes change colour on reduction, which living cells bring about.

For assay [3], the system named is A549 non-small-cell-lung cancer cells. The assay can be described thus: MTT colorimetric assay, overall cell growth, A549. Conditions: Homo sapiens, A549, 72 hours of incubation, read-out: In Vitro IC50 Growth Inhibitory Values, A549. It counts as cell-based, human.
Description: as §1

In assay [4] the test system is Eleven human cancer cell lines. The assay can be described thus: MTT colorimetric assay, across the eleven human cancer cell lines. The conditions noted are these: mean ± SEM over the 11 human cancer cell lines, MTT, 72 hours; read-out: In Vitro IC50 Growth Inhibitory Values, m ± SEM. It counts as cell-based.
Description: as §1

Another assay concerns VM21 melanoma cells. The assay can be described thus: MTT colorimetric assay, overall cell growth, VM21. The format is cell-based, human. The conditions noted are these: Homo sapiens; MTT, 72 hours of incubation; read-out: In Vitro IC50 Growth Inhibitory Values, VM21.
Description: as §1

Assay [5] relates to OE21 oesophageal cancer cells. The assay can be described thus: MTT colorimetric assay, overall cell growth, OE21. It counts as cell-based, human. Conditions: Homo sapiens, OE21, 72 hours of incubation, read-out: In Vitro IC50 Growth Inhibitory Values, OE21.
Description: as §1

The subject of another assay is VM48 melanoma cells. The assay can be described thus: MTT colorimetric assay, overall cell growth, VM48. Conditions: Homo sapiens; MTT, 72 hours of incubation; read-out: In Vitro IC50 Growth Inhibitory Values, VM48. It counts as cell-based, human.
Another assay concerns Hs683 glioma cells. The assay can be described thus: MTT colorimetric assay, overall cell growth, Hs683. It counts as cell-based, human. The conditions noted are these: Homo sapiens, Hs 683, 72 hours of incubation, read-out: In Vitro IC50 Growth Inhibitory Values, Hs683.
Description: as §1

Assay [6] relates to B16F10 melanoma cell-line. The assay can be described thus: MTT colorimetric assay, overall cell growth, B16F10. The format is cell-based, mouse. Conditions: Mus musculus, B16-F10, 72 hours of incubation, read-out: In Vitro IC50 Growth Inhibitory Values, B16F10.
Description: as §1

Another assay deals with T98G glioma cells. The assay can be described thus: MTT colorimetric assay, overall cell growth, T98G. The format is cell-based, human. Conditions: Homo sapiens, T98G, 72 hours of incubation, read-out: In Vitro IC50 Growth Inhibitory Values, T98G.
Description: as §1

Assay [7] deals with OE33 oesophageal cancer cells. The assay can be described thus: MTT colorimetric assay, overall cell growth, OE33. It counts as cell-based, human. Conditions: Homo sapiens, OE33, 72 hours of incubation, read-out: In Vitro IC50 Growth Inhibitory Values, OE33.
Description: as §1

Assay [8] concerns MCF-7 breast cancer cells. The assay can be described thus: MTT colorimetric assay, overall cell growth, MCF-7. The conditions noted are these: Homo sapiens, MCF7, 72 hours of incubation, read-out: In Vitro IC50 Growth Inhibitory Values, MCF-7. The format is cell-based, human.
Description: as §1

The test system of the next assay is LoVo colon cancer cells. The assay can be described thus: MTT colorimetric assay, overall cell growth, LoVo. The format is cell-based, human. Conditions: Homo sapiens, LoVo, 72 hours of incubation, read-out: In Vitro IC50 Growth Inhibitory Values, LoVo.
Description: as §1

A further assay has as its system U373-MG glioma cell line. The assay can be described thus: Cellular imaging (quantitative videomicroscopy), global growth ratio, U373. It counts as cell-based. The conditions noted are these: Homo sapiens, 50 μM, 72 h, read-out: Global Grow Ratio Treated/Ct (GGR T/Ct) determined by Video Quantitative microscopy, U373.
Description: as §2, §3, §4, §5, §6

Assay [9] has as its system cancer cells versus normal fibroblasts. The assay can be described thus: Anti-proliferative, anti-migratory and anti-kinase effects, cancer cells versus normal fibroblasts. The format is cell-based, human. Conditions: anti-proliferative. The text has this:
The compounds of the invention were subsequently evaluated for their 1) anti-proliferative effect (by means of the colorimetric MTT assay), 2) pro-autophagic and pro-apoptotic effect (by means of flow cytometry analyses), and 3) anti-migratory effect (by means of quantitative videomicroscopy), in the following human cancer cell-lines: a) U373, T98G and Hs683 glioblastoma cells, b) VM21 and VM48 melanoma cells, c) PC-3 prostate cancer cells, d) MCF-7 breast cancer cells, e) LoVo colon cancer cells, f) OE21 oesophageal cancer cells, and g) A549 NSCLC cancer cells, as well as in human WS1 and WI38 normal fibroblasts (i.e. non-cancer cells).
The best current hits, DLT12 and DLT4, display anti-proliferative, anti-migratory effects and anti-kinase effects which are ˜10 times more pronounced in cancer cells than in normal fibroblasts. […] FIG. 1 illustrates the data obtained with respect to the human U373 glioblastoma model, while FIG. 2 illustrates the data obtained in human normal fibroblasts. […] DLT-95 and its derivatives DLT-95-F and DLT-95-Cl were also shown to have a significant effect on the proliferation 7 different human cancer cell-lines.

On to `COc1cc(C(=O)O[C@@H]2CCCC[C@H]2OC(=O)c2ccc(O)c(OC)c2)ccc1O` [DLT8, R,R-trans-cyclohexane-1,2-diyl bis-(4-hydroxy-3-methoxybenzoate)], for which the IC50 in the assay on U373 glioblastoma cells was 53 µM; in [2] it was 77 µM; in assay [3], 76 µM; in assay [4], over 100 µM; in the assay on VM21 melanoma cells it was 77 µM; in assay [5], 45 µM. For the same compound, the IC50 was 72 µM in the assay on VM48 melanoma cells; over 100 µM with Hs683 glioma cells; 59 µM in assay [6]; over 100 µM with T98G glioma cells; 77 µM in assay [7]; 75 µM in assay [8]. Also, in the assay on LoVo colon cancer cells, the IC50 was determined as 64 µM. The activity at 50 µM (in assay [1]; in the assay with U373-MG glioma cell line) was 50% in each case.
For the compound `COc1cc(C(=O)OCCCCCCCCOC(=O)c2ccc(O)c(OC)c2)ccc1O` [DLT13, Octane-1,8-diyl bis-(4-hydroxy-3-methoxybenzoate)], the activity at 50 µM (in assay [1]; with U373-MG glioma cell line) was 20% in each case. The IC50 in assay [4] is 42 µM; in the assay with VM21 melanoma cells, 28 µM; with VM48 melanoma cells, 26 µM.
`COc1cc(C(=O)OCCCCCOC(=O)c2ccc(O)c(OC)c2)ccc1O` [DLT3, Pentane-1,5-diyl bis-(4-hydroxy-3-methoxybenzoate)]: the activity at 50 µM in [1] came out at 90%; in the assay on U373-MG glioma cell line it was 70%. Besides, the IC50 (in assay [2]; in [4]; in the assay on VM21 melanoma cells; in the assay with VM48 melanoma cells) was over 100 µM each time.
As to `COc1cc(C(=O)OCCCOC(=O)c2ccc(O)c(OC)c2)ccc1O` [DLT2, Propane-1,3-diyl bis-(4-hydroxy-3-methoxybenzoate)], the activity at 50 µM in assay [1] is 110%; in the assay with U373-MG glioma cell line it was 40%. Further, the IC50 was over 100 µM in assay [4], 72 µM in the assay with VM21 melanoma cells and 68 µM with VM48 melanoma cells.
Consider `COc1cc(C(=O)OCCCCOC(=O)c2ccc(O)c(OC)c2)ccc1O` [DLT10, Butane-1,4-diyl bis-(4-hydroxy-3-methoxybenzoate)], for which the results for the activity at 50 µM (in assay [1]; in the assay on U373-MG glioma cell line) were 20% and 50%, respectively. Besides, the IC50 in [4] is over 100 µM; with VM21 melanoma cells, 60 µM; in the assay on VM48 melanoma cells, 52 µM.
In the case of `COc1cc(C(=O)OCCCCCCCOC(=O)c2ccc(O)c(OC)c2)ccc1O` [DLT12, Heptane-1,7-diyl bis-(4-hydroxy-3-methoxybenzoate)], the activity at 50 µM (in [1]; in the assay with U373-MG glioma cell line) was 20% in each case. The IC50 in [4] came out at 46 µM; with VM21 melanoma cells, 32 µM; in the assay on VM48 melanoma cells it was 38 µM. For the same compound, the “effects more pronounced in cancer cells than in normal fibroblasts” value in assay [9] is recorded as about 10 times.
`COc1cc(C(=O)O[C@H]2CCCC[C@H]2OC(=O)c2ccc(O)c(OC)c2)ccc1O` [DLT9, cis-cyclohexane-1,2-diyl bis-(4-hydroxy-3-methoxybenzoate)]: the IC50 was found to be 43 µM in the assay with U373 glioblastoma cells; 35 µM in assay [2]; 48 ± 3 µM in [4]; 44 µM with VM21 melanoma cells; 57 µM with VM48 melanoma cells; 49 µM in the assay with Hs683 glioma cells. Moreover, the half-maximal inhibitory concentration (IC50) with T98G glioma cells is 76 µM. Also, the activity at 50 µM (in assay [1]; in the assay on U373-MG glioma cell line) was 20% in each case.
Take `COc1cc(C(=O)OC2CCCC[C@@H]2OC(=O)c2ccc(O)c(OC)c2)ccc1O` (stereo partly drawn) [DLT7, S,S-trans-cyclohexane-1,2-diyl bis-(4-hydroxy-3-methoxybenzoate)]: the IC50 in the assay with U373 glioblastoma cells came out at 20 µM; in [2], 59 µM; in assay [3], 43 µM; in [4], 47 ± 4 µM; in the assay with VM21 melanoma cells, 35 µM; in assay [5], 41 µM. For the same compound, the IC50 in the assay on VM48 melanoma cells came to 36 µM; in the assay on Hs683 glioma cells it was 57 µM; in assay [6] it was 49 µM; with T98G glioma cells, 70 µM; in [7] it was 66 µM; in [8], 47 µM. Further, in the assay on LoVo colon cancer cells, the IC50 is 44 µM. For the same compound, the activity at 50 µM (in assay [1]; in the assay with U373-MG glioma cell line) was 20% each time.

The term IC50 denotes the concentration that inhibits the measured activity by half.
